Experimental data as given in US9725414B2, “Fungicidal N-bicycloalkyl and N-tricycloalkyl pyrazole-4-(thio)carboxamide derivatives” (priority 2011, dated 2017).
Where two headings read alike, the source gives them in different places.

Tests used:
Sphaerotheca fuliginea = test: Example B: in vivo preventive test on Sphaerotheca fuliginea (powdery mildew on cucurbits), gherkin plants; conditions: 500 ppm of active ingredient, grading 12 days after contamination
Experimental: In Vivo Preventive Test on Sphaerotheca fuliginea (Powdery Mildew on Cucurbits) […] Gherkin plants (“Vert petit de Paris” variety), sown in starter cups on a 50/50 peat soil-pozzolana substrate and grown at 24° C. are treated at the Z11 cotyledon stage by spraying with the active ingredient prepared as described above. Plants, used as controls, are treated with the mixture of acetone/tween/DMSO/water not containing the active material. After 24 hours, the plants are contaminated by spraying the cotyledons with an aqueous suspension of Sphaerotheca fuliginea spores (100 000 spores per mL). The spores are collected from infected plants.

Alternaria solani = test: Example C: in vivo preventive test on Alternaria solani (tomato); conditions: 500 ppm of active ingredient, evaluated 7 days after inoculation
Experimental: (§1) In Vivo Preventive Test on Alternaria solani (Tomato) Solvent: 49 parts by weight of N,N-dimethylformamide Emulsifier: 1 part by weight of alkylarylpolyglycolether To produce a suitable preparation of active compound, 1 part by weight of active compound is mixed with the stated amounts of solvent and emulsifier, and the concentrate is diluted with water to the desired concentration. To test for preventive activity, young plants are sprayed with the preparation of active compound at the stated rate of application. One day after this treatment, the plants are inoculated with an aqueous spore suspension of Alternaria solani. The plants remain for one day in an incubation cabinet at approximately 22° C. and a relative atmospheric humidity of 100%. Then the plants are placed in an incubation cabinet at approximately 20° C. and a relative atmospheric humidity of 96%.

Pyrenophora teres [1] = test: Example E: in vivo preventive test on Pyrenophora teres (barley), DMF/emulsifier preparation; conditions: 500 ppm of active ingredient, evaluated 7-9 days after inoculation
Experimental: as §1, with “Pyrenophora teres (Barley)” for “Alternaria solani (Tomato)”, “alkylaryl polyglycol ether” for “alkylarylpolyglycolether”, “Pyrenophora teres.” for “Alternaria solani.”, “48 hours” for “one day”, “at” for “at approximately”, “100%.” for “100%. Then the plants are placed in an incubation cabinet at approximately 20° C. and a relative atmospheric humidity of 96%.”

Puccinia recondita = test: Example M: in vivo preventive test on Puccinia recondita (brown rust on wheat); conditions: 500 ppm of active ingredient, grading 12 days after contamination
Experimental: In Vivo Preventive Test on Puccinia recondita (Brown Rust on Wheat) […] Wheat plants (“Scipion” variety), sown in starter cups on a 50/50 peat soil pozzolana substrate and grown at 22° C., are treated at the 1 leaf stage (10 cm height) by spraying with the active ingredient prepared as described above. Plants, used as controls, are treated with the mixture of acetone/tween/DMSO/water not containing the active material. After 24 hours, the plants are contaminated by spraying the leaves with an aqueous suspension of Puccinia recondite spores (100 000 spores per mL). The spores are collected from an infected plant and are suspended in water containing 2.5 mL/L of Tween 80 at 10%. […] Grading (% of efficacy) is carried out 12 days after the contamination, in comparison with the control plants.

Pyrenophora teres [2] = test: Example F: in vivo preventive test on Pyrenophora teres (barley), acetone/tween/DMSO preparation; conditions: 500 ppm of active ingredient, barley, grading 14 days after contamination
Experimental: In Vivo Preventive Test on Pyrenophora teres (Barley) […] Barley plants (“Plaisant” variety), sown in starter cups on a 50/50 peat soil pozzolana substrate and grown at 22° C., are treated at the 1 leaf stage (10 cm height) by spraying with the active ingredient prepared as described above. Plants, used as controls, are treated with the mixture of acetone/tween/DMSO/water not containing the active material. After 24 hours, the plants are contaminated by spraying the leaves with an aqueous suspension of Pyrenophora teres spores (12 000 spores per mL). The spores are collected from a 12-day-old culture. […] Grading (% of efficacy) is carried out 14 days after the contamination, in comparison with the control plants.

Septoria tritici = test: Example I: in vivo preventive test on Septoria tritici (wheat), acetone/tween/DMSO preparation; conditions: 500 ppm of active ingredient, grading 24 days after contamination
Experimental: In Vivo Preventive Test on Septoria tritici (Wheat) […] Wheat plants (“Scipion” variety), sown in starter cups on a 50/50 peat soil pozzolana substrate and grown at 22° C., are treated at the 1 leaf stage (10 cm height) by spraying with the active ingredient prepared as described above. Plants, used as controls, are treated with the mixture of acetone/tween/DMSO/water not containing the active material. After 24 hours, the plants are contaminated by spraying the leaves with an aqueous suspension of cryopreserved Septoria tritici spores (500 000 spores per mL). The contaminated wheat plants are incubated for 72 hours at 18° C. and at 100% relative humidity, and then for 21 days at 90% relative humidity. Grading (% of efficacy) is carried out 24 days after the contamination, in comparison with the control plants.

[3] = log P by HPLC on reversed-phase column (C 18), EEC Directive 79831 Annex V.A8; format: physicochemical
Experimental: In table 1, the log P values were determined in accordance with EEC Directive 79831 Annex V.A8 by HPLC (High Performance Liquid Chromatography) on a reversed-phase column (C 18), using the method described below: Temperature: 40° C.; Mobile phases: 0.1% aqueous formic acid and acetonitrile; linear gradient from 10% acetonitrile to 90% acetonitrile. Calibration was carried out using unbranched alkan-2-ones (comprising 3 to 16 carbon atoms) with known log P values (determination of the log P values by the retention times using linear interpolation between two successive alkanones). lambda-max-values were determined using UV-spectra from 200 nm to 400 nm and the peak values of the chromatographic signals.

[4] = HPLC reversed-phase C 18, 40° C., 0.1% aqueous formic acid and acetonitrile gradient, several values = mixture of two or more isomers

SMILES: Cn1cc(C(=O)N(C2CC2)C2CCC3CCCC3C2)c(C(F)F)n1 (mixture of isomers) [Example 23]
- Efficacy (Sphaerotheca fuliginea): 83%
- Efficacy (Alternaria solani): 80%
- Efficacy (Pyrenophora teres [1]): 100%
- Efficacy (Puccinia recondita): 81%

SMILES: Cn1cc(C(=O)NC2CCCC3CCCCC32)c(C(F)F)n1 (mixture of isomers) [Example 29]
- Efficacy (Sphaerotheca fuliginea): 95%

SMILES: Cn1nc(C(F)F)c(C(=O)NC2CCCC3CCCCC32)c1Cl (mixture of isomers) [Example 30]
- Efficacy (Sphaerotheca fuliginea): 100%

SMILES: Cn1cc(C(=O)N(C2CC2)C2CCCC3CCCCC32)c(C(F)F)n1 (mixture of isomers) [Example 33]
- Efficacy (Sphaerotheca fuliginea): 94%
- Efficacy (Pyrenophora teres [2]): 100%
- Efficacy (Septoria tritici): 92%

SMILES: Cn1nc(C(F)F)c(C(=O)NC2CCC3CCCCC3C2)c1Cl (mixture of isomers) [Example 34]
- Efficacy (Alternaria solani): 95%
- Efficacy (Pyrenophora teres [1]): 70%

SMILES: Cn1nc(C(F)F)c(C(=O)NC2CCC3CCCCC3C2)c1F (mixture of isomers) [Example 35]
- Efficacy (Alternaria solani): 80%

SMILES: Cn1cc(C(=O)N(C2CC2)C2CCC3CCCCC3C2)c(C(F)F)n1 (mixture of isomers) [Example 36]
- Efficacy (Alternaria solani): 95%
- Efficacy (Pyrenophora teres [1]): 100%

SMILES: Cn1nc(C(F)F)c(C(=O)N(C2CC2)C2CCC3CCCCC3C2)c1Cl (mixture of isomers) [Example 37]
- Efficacy (Alternaria solani): 95%
- Efficacy (Pyrenophora teres [1]): 100%

SMILES: Cc1nn(C)c(F)c1C(=O)NC1CCCC2C1C(C)CC2(C)C (centres unmarked) [Example 15]
- logP [3]: 3.76
- Efficacy (Alternaria solani): 89%
- Efficacy (Pyrenophora teres [1]): 100%

SMILES: CC1CC(C)(C)C2CCCC(NC(=O)c3c(C(F)F)nn(C)c3Cl)C12 (centres unmarked) [Example 16]
- logP [3]: 4.49
- Efficacy (Pyrenophora teres [1]): 100%

SMILES: CC1CC(C)(C)C2CCCC(NC(=O)c3cn(C)nc3C(F)(F)F)C12 (centres unmarked) [Example 17]
- logP [3]: 4.00
- Efficacy (Alternaria solani): 94%
- Efficacy (Pyrenophora teres [1]): 95%

SMILES: Cn1nc(C(F)F)c(C(=S)N(C2CC2)C2CCC3CCCC3C2)c1F (centres unmarked) [Example 24]
- logP [3]: 4.90
- Efficacy (Pyrenophora teres [1]): 95%

SMILES: CC(C)N(C(=O)c1c(C(F)F)nn(C)c1Cl)C1CCCC2CCCCC21 (centres unmarked) [Example 26]
- logP [3]: 4.83

SMILES: CC(C)N(C(=O)c1c(C(F)F)nn(C)c1F)C1CCCC2CCCCC21 (centres unmarked) [Example 27]
- logP [3]: 4.58

SMILES: Cn1nc(C(F)F)c(C(=S)NC2CCCC3CCCCC32)c1F (centres unmarked) [Example 28]
- logP [3]: 4.41
- Efficacy (Alternaria solani): 70%
- Efficacy (Pyrenophora teres [1]): 95%

SMILES: Cn1nc(C(F)F)c(C(=O)NC2C3(C)CCC(C3)C2(C)C)c1Cl (centres unmarked) [Example 39]
- logP [3]: 3.92

SMILES: Cn1nc(C(F)F)c(C(=O)NC2C3(C)CCC(C3)C2(C)C)c1F (centres unmarked) [Example 40]
- logP [3]: 3.70

SMILES: Cn1cc(C(=O)NC2C3(C)CCC(C3)C2(C)C)c(C(F)F)n1 (centres unmarked) [Example 41]
- logP [3]: 3.35

SMILES: Cn1nc(C(F)F)c(C(=O)NC2(C#N)CC3CCC2C3)c1Cl (centres unmarked) [Example 43]
- logP [3]: 2.34

SMILES: Cn1cc(C(=O)NC2(C#N)CC3CCC2C3)c(C(F)F)n1 (centres unmarked) [Example 44]
- logP [3]: 1.97

SMILES: Cn1nc(C(F)F)c(C(=O)NC2(C#N)CC3CCC2C3)c1F (centres unmarked) [Example 45]
- logP [3]: 2.16

SMILES: Cn1cc(C(=O)NC23CC4CC(CC(C4)C2)C3)c(C(F)F)n1 [Example 55]
- logP [3]: 3.06

SMILES: Cn1nc(C(F)F)c(C(=O)N(CC2CCC3CCCC32)C2CC2)c1F (centres unmarked) [Example 58]
- logP [3]: 3.96
- Efficacy (Pyrenophora teres [2]): 100%
- Efficacy (Puccinia recondita): 98%

SMILES: Cn1nc(C(F)F)c(C(=O)N(CC2CCC3CCCC3C2)C2CC2)c1Cl (centres unmarked) [Example 64]
- logP [3, 4]: 4.59
- Efficacy (Sphaerotheca fuliginea): 89%
- Efficacy (Pyrenophora teres [2]): 71%
- Efficacy (Septoria tritici): 93%
- Efficacy (Puccinia recondita): 94%

SMILES: CC1C(CN(C(=O)c2c(C(F)F)nn(C)c2Cl)C2CC2)CC2CC1C2(C)C (centres unmarked) [Example 79]
- logP [3]: 4.82
- Efficacy (Alternaria solani): 94%
- Efficacy (Pyrenophora teres [1]): 100%

SMILES: CC1C(CNC(=O)c2c(C(F)F)nn(C)c2Cl)CC2CC1C2(C)C (centres unmarked) [Example 80]
- logP [3]: 4.25
- Efficacy (Alternaria solani): 100%
- Efficacy (Pyrenophora teres [1]): 100%

SMILES: CC1C(CNC(=O)c2c(C(F)F)nn(C)c2F)CC2CC1C2(C)C (centres unmarked) [Example 81]
- logP [3]: 3.99
- Efficacy (Alternaria solani): 100%
- Efficacy (Pyrenophora teres [1]): 100%

SMILES: Cn1nc(C(F)F)c(C(=O)NCC2CCC3CC2C3(C)C)c1F (centres unmarked) [Example 84]
- logP [3]: 3.62
- Efficacy (Alternaria solani): 95%
- Efficacy (Pyrenophora teres [1]): 100%

SMILES: Cn1cc(C(=O)NCC23CC4CC(CC(C4)C2)C3)c(C(F)F)n1 [Example 87]
- logP [3]: 3.29
- Efficacy (Sphaerotheca fuliginea): 79%
- Efficacy (Puccinia recondita): 75%

SMILES: Cn1nc(C(F)F)c(C(=O)NCC23CC4CC(CC(C4)C2)C3)c1Cl [Example 88]
- logP [3, 4]: 3.89
- Efficacy (Alternaria solani): 100%

SMILES: Cn1nc(C(F)F)c(C(=O)NCC23CC4CC(CC(C4)C2)C3)c1F [Example 89]
- logP [3, 4]: 3.67
- Efficacy (Alternaria solani): 95%

SMILES: CC(NC(=O)c1c(C(F)F)nn(C)c1Cl)C12CC3CC(CC(C3)C1)C2 (centres unmarked) [Example 106]
- logP [3]: 4.27
- Efficacy (Alternaria solani): 100%
- Efficacy (Pyrenophora teres [1]): 90%

SMILES: CC(NC(=O)c1c(C(F)F)nn(C)c1F)C12CC3CC(CC(C3)C1)C2 (centres unmarked) [Example 107]
- logP [3]: 4.03
- Efficacy (Alternaria solani): 95%
- Efficacy (Pyrenophora teres [1]): 80%

SMILES: Cn1nc(C(F)F)c(C(=O)N(CC23CC4CC(CC(C4)C2)C3)C2CC2)c1Cl [Example 108]
- logP [3]: 4.68

SMILES: Cn1nc(C(F)F)c(C(=O)N(CC23CC4CC(CC(C4)C2)C3)C2CC2)c1F [Example 109]
- logP [3]: 4.49

SMILES: COc1nn(C)c(F)c1C(=O)N(CC12CC3CC(CC(C3)C1)C2)C1CC1 [Example 110]
- logP [3]: 4.04

SMILES: Cn1cc(C(=O)N(CC23CC4CC(CC(C4)C2)C3)C2CC2)c(C(F)F)n1 [Example 111]
- logP [3]: 3.92

SMILES: CC1CC1N(C(=O)c1c(C(F)(F)F)nn(C)c1F)C(C)C1CC2CCC1C2 (centres unmarked) [Example 112]
- logP [3]: 4.92

SMILES: CC(NC1CC1)C12CC3CC(CC(C3)C1)C2 (centres unmarked) [N-[1-(adamantan-1-yl)ethyl]cyclopropanamine]
- chromatographic logP [3]: 5.82
